# Experimental data as given in patent US20230278997A1, “BICYCLO[1.1.1]PENTANE COMPOUNDS FOR THE TREATMENT AND PROPHYLAXIS OF HEPATITIS B VIRUS INFECTION” (Hoffmann-La Roche Inc., priority 2020, published 2023).
# pIC50: −log10 of the molar value.
# Columns and labels:
# HBsAg = experiment: microbe, parasite or virus in culture; format: cell-based, HBV; conditions: Hepatitis B virus, read-out: HBsAg IC50
# [1] = tested on: primary human hepatocyte (PHH); experiment: Cytotoxicity in PHH natural infection assay (Cell Counting Kit-8); format: cell-based; conditions: therapeutic index; CC50 by CCK8 in PHH over HBsAg IC50
# Experimental: Detailed procedures regarding primary human hepatocyte (PHH) HBV natural infection assay are described as below. One tube of frozen PHH (10 million cells) was thawed in 37° C. water bath and then transferred to 20 mL of PHH thawing medium (Sigma, InVitroGRO HT Medium, Cat. 503319) with gently mixing. The cells were then centrifuged at […] for 5 min, the supernatant was discarded and the tube was refilled with 25 mL of PHH plating medium (Sigma, InVitroGRO CP Medium, Cat. 503317). The tube was shaken very gently to re-suspend all cells, and then 50 μl of cells were transferred to each well of a 384-well collagen I coated plate with appropriate liquid handling equipment, e.g. Integra VIAFLO384 or Agilent Bravo. The cells were then cultured for 24 hours in a cell incubator. For HBV infection, after PHH attachment on the culture plate, the plating medium was removed and replenished with PHH culture medium containing HBV virus. The PHH culture medium was prepared with Dulbecco's Modified Eagle Medium (DMEM)/F12 (1:1 in volume ratio) containing 10% fetal bovine serum (Gibco, Cat.10099141), 5 ng/mL human epidermal growth factor (Gibco, Cat.PHG031 IL), 20 ng/mL dexamethasone (Sigma, Cat.D4902-100 mg), 250 ng/mL human recombinant insulin (Gibco, Cat.41400045) and 100 U/mL penicillin. HBV virus at 200 genome equivalent (GE) per cell with 4% PEG8000 (Sigma, Cat.P1458) containing culture medium were added to the PHH culture medium for infection. The cells were then cultured for 24 hours in cell incubator. Then the cell culture supernatant was removed. The HBV-infected PHH were cultured with sandwich culture method with PHH culture medium containing 1% DMSO and 0.25 mg/mL matrix gel for 72 hours. The supernatant was then refreshed with PHH culture medium containing different concentrations of testing compounds for two times with 72-hour interval. At the end of treatment, the supernatant was collected for viral markers measurements, including HBsAg, HBeAg, HBV DNA and cytotoxicity. HBsAg and HBeAg were detected using alphalisa method using their specific antibodies. For HBV DNA detection, HBV DNA Quantitative Fluorescence Diagnostic Kit (Sansure Biotech Inc.) was used following the manufacture's protocol. Cytotoxicity was determined using Cell Counting Kit-8 (CCK8, Dojindo Molecular Technologies, Inc.).
# [2] = Human microsome stability assay; format: in vitro ADME; conditions: 1 μM compound, 0.5 mg/mL microsomal protein, 37° C.; detection limit 6.15 mL/min/kg
# Experimental: Human Microsome Stability Assay The human microsomal stability assay is used for early assessment of metabolic stability of a test compound in human liver microsomes. Human liver microsomes (Cat. […] The reactions were initiated by adding NADPH regenerating system. […] Following precipitation and centrifugation, the amount of compound remaining in the samples were determined by LC-MS/MS. Controls of no NADPH regenerating system at zero and 30 minutes were also prepared and analyzed.
# HBeAg = experiment: microbe, parasite or virus in culture; format: cell-based, HBV; conditions: Hepatitis B virus, read-out: HBeAg IC50
SMILES,pIC50 (HBsAg),TI (CC50/IC50 HBsAg) [1],Clearance of human microsome [2],pIC50 (HBeAg)
"CS(=O)(=O)C1(c2ccc(C(=O)NC34CC(c5nc(-c6cccc(Cl)c6)cs5)(C3)C4)o2)CC1 [Example 2, N-[3-[4-(3-chlorophenyl)thiazol-2-yl]-1-bicyclo[1.1.1]pentanyl]-5-(1-methylsulfonylcyclopropyl)furan-2-carboxamide]",6.46,20.66,≤6.15 mL/min/kg,6.70
"CS(=O)(=O)C1(c2ccc(C(=O)NC34CC(c5nc(-c6ccccc6Cl)cs5)(C3)C4)o2)CC1 [Example 3, N-[3-[4-(2-chlorophenyl)thiazol-2-yl]-1-bicyclo[1.1.1]pentanyl]-5-(1-methylsulfonylcyclopropyl)furan-2-carboxamide]",6.17,8.85,≤6.15 mL/min/kg,6.30
"CS(=O)(=O)C1(c2nsc(C(=O)NC34CC(c5nc(-c6cccc(Cl)c6)cs5)(C3)C4)n2)CC1 [Example 4, N-[3-[4-(3-chlorophenyl)thiazol-2-yl]-1-bicyclo[1.1.1]pentanyl]-3-(1-methylsulfonylcyclopropyl)-1,2,4-thiadiazole-5-carboxamide]",6.77,29.65,≤6.15 mL/min/kg,6.92
"CS(=O)(=O)C1(c2ncc(C(=O)NC34CC(c5nc(-c6ccc(Cl)cc6)cs5)(C3)C4)o2)CC1 [Example 6, N-[3-[4-(4-chlorophenyl)thiazol-2-yl]-1-bicyclo[1.1.1]pentanyl]-2-(1-methylsulfonylcyclopropyl)oxazole-5-carboxamide]",7.10,81.63,≤6.15 mL/min/kg,7.30
"CS(=O)(=O)C1(c2ccc(C(=O)NC34CC(c5nc(-c6ccc(Cl)c(Cl)c6)cs5)(C3)C4)o2)CC1 [Example 8, N-[3-[4-(3,4-dichlorophenyl)thiazol-2-yl]-1-bicyclo[1.1.1]pentanyl]-5-(1-methylsulfonylcyclopropyl)furan-2-carboxamide]",6.80,16.69,≤6.15 mL/min/kg,6.96
"CS(=O)(=O)C1(c2ccc(C(=O)NC34CC(c5nc(-c6ccc(Cl)cn6)cs5)(C3)C4)o2)CC1 [Example 10, N-[3-[4-(5-chloro-2-pyridyl)thiazol-2-yl]-1-bicyclo[1.1.1]pentanyl]-5-(1-methylsulfonylcyclopropyl)furan-2-carboxamide]",6.55,31.11,≤6.15 mL/min/kg,6.70
"CS(=O)(=O)C1(c2ccc(C(=O)NC34CC(c5nc(-c6ccccc6)cs5)(C3)C4)o2)CC1 [Example 13, 5-(1-methylsulfonylcyclopropyl)-N-[3-(4-phenylthiazol-2-yl)-1-bicyclo[1.1.1]pentanyl]furan-2-carboxamide]",6.11,12.38,≤6.15 mL/min/kg,6.25
"CS(=O)(=O)C1(c2ccc(C(=O)NC34CC(c5nc(-c6ccc(Cl)cc6)ns5)(C3)C4)o2)CC1 [Example 18, N-[3-[3-(4-chlorophenyl)-1,2,4-thiadiazol-5-yl]-1-bicyclo[1.1.1]pentanyl]-5-(1-methylsulfonylcyclopropyl)furan-2-carboxamide]",6.72,39.05,8.8 mL/min/kg,6.92
"CS(=O)(=O)C1(c2ccc(C(=O)NC34CC(c5ncc(-c6ccc(Cl)cc6)s5)(C3)C4)o2)CC1 [Example 19, N-[3-[5-(4-chlorophenyl)thiazol-2-yl]-1-bicyclo[1.1.1]pentanyl]-5-(1-methylsulfonylcyclopropyl)furan-2-carboxamide]",6.68,>47.62,≤6.15 mL/min/kg,6.80
"CS(=O)(=O)C1(c2ccc(C(=O)NC34CC(c5ncc(-c6ccc(Cl)c(Cl)c6)s5)(C3)C4)o2)CC1 [Example 21, N-[3-[5-(3,4-dichlorophenyl)thiazol-2-yl]-1-bicyclo[1.1.1]pentanyl]-5-(1-methylsulfonylcyclopropyl)furan-2-carboxamide]",7.15,29.86,6.66 mL/min/kg,7.15
"CS(=O)(=O)C1(c2ccc(C(=O)NC34CC(c5csc(-c6ccccc6)n5)(C3)C4)o2)CC1 [Example 26, 5-(1-methylsulfonylcyclopropyl)-N-[3-(2-phenylthiazol-4-yl)-1-bicyclo[1.1.1]pentanyl]furan-2-carboxamide]",6.11,8.91,≤6.15 mL/min/kg,6.28
"CS(=O)(=O)C1(c2ccc(C(=O)NC34CC(c5csc(-c6ccc(Cl)cc6)n5)(C3)C4)o2)CC1 [Example 27, N-[3-[2-(4-chlorophenyl)thiazol-4-yl]-1-bicyclo[1.1.1]pentanyl]-5-(1-methylsulfonylcyclopropyl)furan-2-carboxamide]",6.89,39.46,≤6.15 mL/min/kg,7.05
"NC(=O)c1cc(C(=O)NC23CC(c4nc(-c5ccc(Cl)cc5)no4)(C2)C3)ccn1 [Example 36, N4-[3-[3-(4-chlorophenyl)-1,2,4-oxadiazol-5-yl]-1-bicyclo[1.1.1]pentanyl]pyridine-2,4-dicarboxamide]",–,–,11.99 mL/min/kg,–
"CS(=O)(=O)C1(c2ccn(C(=O)NC34CC(c5nc(-c6ccc(Cl)cc6)cs5)(C3)C4)n2)CC1 [Example 53, N-[3-[4-(4-chlorophenyl)thiazol-2-yl]-1-bicyclo[1.1.1]pentanyl]-3-(1-methylsulfonylcyclopropyl)pyrazole-1-carboxamide]",6.77,21.88,–,6.96
"CS(=O)(=O)C1(c2ccn(C(=O)NC34CC(c5ncc(-c6ccc(Cl)cc6)s5)(C3)C4)n2)CC1 [Example 54, N-[3-[5-(4-chlorophenyl)thiazol-2-yl]-1-bicyclo[1.1.1]pentanyl]-3-(1-methylsulfonylcyclopropyl)pyrazole-1-carboxamide]",7.22,10.83,–,7.30
"CS(=O)(=O)C1(c2ncc(C(=O)NC34CC(c5ncc(-c6ccc(Cl)cc6)s5)(C3)C4)o2)CC1 [Example 55, N-[3-[5-(4-chlorophenyl)thiazol-2-yl]-1-bicyclo[1.1.1]pentanyl]-2-(1-methylsulfonylcyclopropyl)oxazole-5-carboxamide]",7.05,89.00,–,7.15
"CS(=O)(=O)C1(c2ccc(C(=O)NC34CC(c5ncc(-c6ccc(Cl)nc6)s5)(C3)C4)o2)CC1 [Example 56, N-[3-[5-(6-chloro-3-pyridyl)thiazol-2-yl]-1-bicyclo[1.1.1]pentanyl]-5-(1-methylsulfonylcyclopropyl)furan-2-carboxamide]",–,–,≤6.15 mL/min/kg,–
"CS(=O)(=O)C1(c2ccc(C(=O)NC34CC(c5ncc(-c6ccc(Cl)cn6)s5)(C3)C4)o2)CC1 [Example 57, N-[3-[5-(5-chloro-2-pyridyl)thiazol-2-yl]-1-bicyclo[11.11]pentanyl]-5-(1-methylsulfonylcyclopropyl)furan-2-carboxamide]",–,–,15.39 mL/min/kg,–
"CS(=O)(=O)C1(c2ccc(C(=O)NC34CC(c5ncc(-c6cnc(Cl)cn6)s5)(C3)C4)o2)CC1 [Example 59, N-[3-[5-(5-chloropyrazin-2-yl)thiazol-2-yl]-1-bicyclo[1.1.1]pentanyl]-5-(1-methylsulfonylcyclopropyl)furan-2-carboxamide]",–,–,6.89 mL/min/kg,–
